The record followed here is patent publication US9115073B2, “1,3-diphenylpropane derivatives, preparations and uses thereof” (GENFIT, priority 2011, dated 2015).

One data set concerns APPPS1 mice. The experiment in a line: Alzheimer's disease model (APPPS1 mice): Morris-Water-Maze test. Format: in vivo, mouse. The note with it: 60 days, +/- standard deviation.
Data set [1] in a line: Compound pharmacokinetics study in mice (plasma and brain). The data set is classed as in vivo. The note with it: mouse; for AUC(0-t): iv (2 mpk) or PO (10 mpk), followed for 24 hours. As to the method:
Compound Pharmacokinetics Study in Mice
The compound was administered to six male swiss mice (five weeks old) by the PO route and six male mice by the iv route (caudal vein). […] For the PO route (10 mg/kg), the compound was dissolved in a solution of 0.5% Methyl cellulose (ref sigma M0262) and 0.3% Polysorbate 80 (Tween 80—ref sigma P8074). During the iv administration and blood sampling animals were anesthetized with Isofluorane® (from Belamont) using an anaesthetic system (Minerve). At the precise time-point, blood samplings were done at the retro-orbital sinus, with a capillary tube. The blood volume collected per each time-point was 0.2-0.3 ml. Blood samples were collected into tubes containing both lithium and heparin and then centrifuged at 2500 rpm at 4° C. Plasma was removed and transferred into polypropylene tubes. Individual plasma aliquots were frozen at −20° C. (±5° C.) and stored until analysis.
After blood sampling, the animals were perfused with 7 ml cold saline solution directly into the heart to extract the maximum of blood from the brain vasculature. Animals were then beheaded and the brain tissue collected and frozen at −20° C. (±5° C.) and stored until analysis. Prior to the sample analysis, the suitability of the analytical method to detect the compounds to be evaluated was performed as described below. The molecular and daughter ions were selected for each molecule by direct infusion into the MS-MS system. For those plasma samples which are mixed prior to analysis, precaution was taken to avoid mixing common moieties both with regards to the parent compounds as well as potential metabolites. According to the expected sensitivity, 8 point calibration standards (1, 5, 10, 50, 100, 500, 1000 and 5000 ng/mL) were run using standard conditions which consist to LC/MS/MS system with C18 column after precipitation of the plasma proteins with acetonitrile before the start of the analytical test. Calibration standards were performed in each matrix (plasma and brain). Prior to analysis, 100 μL of each plasma sample was mixed with 300 μL acetonitrile. Following protein precipitation, samples were vortex mixed for 30 seconds, centrifuged 5 min at 15000 tr/min and the supernatant was removed. Analyses were performed using LC/MS/MS determination according to previous analytical test results. Brains were homogenized with a potter using water (1/1, w/w). 100 μl of the homogenate was mixed with 100 μl of acetonitrile. The mixture was mixed (Vortex) for 30 seconds, then centrifuged during 5 min at 15000 tr/min. Brain homogenate supernatants were directly measured by LC/MS/MS after centrifugation. LC-MS/MS system was used with a C18 Kromasil column and API4000® from Applied Biosystem or Quattro® from Waters as mass spectrometers.

The next data set deals with T1, hPPARgamma (Homo sapiens, UniProt P37231).
T1 construct: Gal4-hPPARγ(LBD); Gal4 (fusion partner); expressed in transfected cells; host or cells: COS-7 (monkey kidney)
T1 sequence (P37231 238-503 limits assumed): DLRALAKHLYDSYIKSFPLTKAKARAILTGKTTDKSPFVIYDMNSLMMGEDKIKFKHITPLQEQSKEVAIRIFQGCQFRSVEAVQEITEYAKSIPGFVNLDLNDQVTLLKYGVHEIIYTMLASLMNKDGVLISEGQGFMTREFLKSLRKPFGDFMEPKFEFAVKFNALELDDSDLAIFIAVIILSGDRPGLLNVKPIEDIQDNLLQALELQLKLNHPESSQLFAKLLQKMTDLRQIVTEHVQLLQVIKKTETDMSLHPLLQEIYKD
The experiment in a line: Gal4-hPPARgamma transactivation assay in COS-7 cells (luciferase). Format: cell-based. The essentials:
(§1)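 COS-7 cells transiently co-transfected with Gal4-hPPAR chimeras and a Gal4(RE)_TkpGL3 luciferase reporter (1/50 ratio) were seeded at 20,000 cells/well for 4 h, then treated in 2% lipid-free synthetic serum medium (0.1% DMSO). EC50 and Hill slope came from fitted luciferase curves. Emax is relative to fenofibrate 100 μM (α), rosiglitazone 10 μM (γ) or GW501516 1 μM (δ).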

A further data set deals with T2, hPPARdelta (Homo sapiens, UniProt Q03181).
T2 construct: Gal4-hPPARδ(LBD); Gal4 (fusion partner); expressed in transfected cells; host or cells: COS-7 (monkey kidney)
T2 sequence (Q03181 211-439 limits assumed): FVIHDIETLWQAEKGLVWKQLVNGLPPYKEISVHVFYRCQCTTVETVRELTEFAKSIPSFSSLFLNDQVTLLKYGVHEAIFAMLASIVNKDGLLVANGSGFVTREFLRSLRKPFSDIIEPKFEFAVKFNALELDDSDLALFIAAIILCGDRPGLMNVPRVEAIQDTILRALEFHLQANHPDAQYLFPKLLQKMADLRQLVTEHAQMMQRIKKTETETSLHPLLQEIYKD
The experiment in a line: Gal4-hPPARdelta transactivation assay in COS-7 cells (luciferase). The data set is classed as cell-based. The essentials:
as §1

Where [2] appears, read: maximal relative activation vs reference, listed as cpd 14-1-2.

The structures appear in SMILES notation.

The bioavailability is dose-corrected exposure relative to a reference, in per cent. As a reminder, the AUC(0-t) is exposure summed from dosing to a finite time, without extrapolation to infinity. Read a low AUC(0-t) as low exposure. A word on the EC50: it is the concentration needed to bring the measured effect to its halfway point. High values mean lower potency in that assay, low ones higher potency in that assay. In the case of `COC(c1ccc(OC(F)(F)F)cc1)C1CC1c1cc(C)c(OC(C)(C)C(=O)O)c(C)c1` (single isomer, unassigned) [Cpd 14-1-2, 2-(4-(2-(methoxy(4-(trifluoromethoxy)phenyl)methyl)cyclopropyl)-2,6-dimethylphenoxy)-2-methylpropanoic acid], the “Morris-Water maze distance, mean reduction from untreated APPPS1 mice” value was 22.6 % +/− 21% (*) in the data set on APPPS1 mice (1 mpk per day) and 31.1 % +/− 18 % (**) in the data set on APPPS1 mice (10 mpk per day). Besides, the “Morris-Water maze latency, mean reduction from untreated APPPS1 mice” value is reported as 45.6 % +/− 16 % (**) in the data set on APPPS1 mice (1 mpk per day) and 39.9 % +/− 20 % (**) in the data set with APPPS1 mice (10 mpk per day). For the same compound, the bioavailability in data set [1] (male, Swiss, plasma, PO (10 mpk) versus iv (2 mpk), read-out: F % (bioavailability)) worked out at 93%. Besides, the AUC(0-t) turned out to be 26700 ng·h/mL in data set [1] (male, Swiss, brain) and 71800 ng·h/mL in data set [1] (male, Swiss, plasma). Further, the Kp in data set [1] (male, Swiss, from AUC comparison brain to plasma, read-out: part of the administered compound that penetrates into the brain) is 0.37. Besides, the brain/plasma ratio in data set [1] (AUC comparison (brain exposure to plasma exposure ratio)) amounted to 0.37. The “F % (bioavailability)” value in data set [1] (PO (10 mpk) versus iv (2 mpk)) is given as 92.9%. In addition, the EC50 came to 11 nM on hPPARgamma (Gal4-hPPARγ(LBD) transactivation) and 4 nM on hPPARdelta (Gal4-hPPARδ(LBD) transactivation). In addition, the “Gal4-hPPARγ(LBD) TOP (% ref)” value at hPPARgamma (setting [2]) is on record as 82 % ref. Also, the “Gal4-hPPARδ(LBD) TOP (% ref)” value at hPPARdelta (setting [2]) turned out to be 90 % ref.
